Reference: patent publication US5962682A, “Aryl- and hetaryl-sulfonamide derivatives, their preparation and their use as endothelin antagonists” (Hoffmann-La Roche Inc., priority 1994, dated 1999)

Tests used:
human ETA receptors = target: T1, human ETA receptors (Homo sapiens, UniProt P25101); test: Inhibition of Endothelin Binding to Recombinant ETA Receptors; conditions: inhibition of 50% of the specific binding of 125I-endothelin (20 pM), baculovirus-insect cell membranes
T1 construct: made in house
T1 sequence (P25101 21-427): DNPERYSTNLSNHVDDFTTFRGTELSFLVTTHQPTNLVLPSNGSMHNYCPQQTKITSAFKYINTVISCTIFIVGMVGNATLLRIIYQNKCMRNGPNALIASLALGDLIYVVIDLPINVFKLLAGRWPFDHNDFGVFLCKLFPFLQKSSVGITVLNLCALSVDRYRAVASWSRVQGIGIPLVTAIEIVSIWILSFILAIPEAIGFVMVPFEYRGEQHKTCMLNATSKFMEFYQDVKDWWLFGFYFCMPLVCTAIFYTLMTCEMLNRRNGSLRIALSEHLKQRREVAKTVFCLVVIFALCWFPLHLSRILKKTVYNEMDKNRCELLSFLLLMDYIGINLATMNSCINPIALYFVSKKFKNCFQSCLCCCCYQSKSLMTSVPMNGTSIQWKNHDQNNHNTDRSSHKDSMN
Experimental: I: Inhibition of Endothelin Binding to Recombinant ETA Receptors
A cDNA coding for human ETA receptors of human placenta was cloned (M. Adachi, Y.-Y. Yang, Y. Furuichi and C. Miyamoto, BBRC 180, 1265-1272) and expressed in the baculovirus-insect cell system. Baculovirus-infected insect cells from a 23 l fermenter are centrifuged off (3000×g, 15 minutes, 4° C.) 60 hours after the infection, re-suspended in Tris buffer (5 mM, pH 7.4, 1 mM MgCl2) and again centrifuged. After a further re-suspension and centrifugation the cells are suspended in 800 ml of the same buffer and […] at -120° C. The cells disintegrate when the suspension in this hypotonic buffer mixture is thawed. After a repeated freeze-drying/thawing cycle the suspension is homogenized and centrifuged (25000×g, 15 minutes, 4° C.). After suspension in Tris buffer (75 mM, pH 7.4, 25 mM MgCl2, 250 mM saccharose) 1 ml aliquots (protein content about 3.5 mg/ml) are stored at -85° C.
(§1) For the binding assay, the freeze-dried membrane preparations are thawed and, after centrifugation at 20° C. and 25000 g for 10 minutes, re-suspended in assay buffer (50 mM Tris buffer, pH 7.4, containing 25 mM MnCl2, 1 mM EDTA and 0.5% bovine serum albumin). 100 μl of this membrane suspension containing 5 μg of protein are incubated with 50 μl of ^125 I-endothelin (specific activity 2200 Ci/mMol) in assay buffer (25000 cpm, final concentration 20 pM) and 100 μl of assay buffer containing varying concentrations of test compound. The incubation is carried out at 20° C. for 2 hours or at 4° C. for 24 hours. The separation of free and membrane-bound radio-ligands is carried out by filtration over a glass fibre filter.
(§2) The inhibitory activity on ETA and ETB receptors of compounds of formula I determined in these test procedures is given in Table 1 as the IC50, i.e. as the concentration [μM] which is required to inhibit 50% of the specific binding of ^125 I-endothelin.

Isolated Rat Aorta Rings = test: Inhibition of Endothelin-Induced Contractions in Isolated Rat Aorta Rings; assay type: cell-based, rat (Wistar-Kyoto); conditions: for Kb: Rattus norvegicus, Table 2, text calls these the pA2 values, endothelin-1 contraction, endothelium removed, 37° C, 10 min preincubation, read-out: Dosage ratio (switch to the right) (converted)
Experimental: III. Inhibition of Endothelin-Induced Contractions in Isolated Rat Aorta Rings
Rings with a length of 5 mm were cut out from the thorax aorta of adult Wistar-Kyoto rats. The endothelium was removed by lightly rubbing the internal surface. Each ring was immersed at 37° C. in 10 ml of Krebs-Henseleit solution in an isolated bath while gassing with 95% O2 and 5% CO2. The isometric stretching of the rings was measured. The rings were stretched to a pretension of 3 g. After incubation for 10 minutes with the test compound or vehicle cumulative dosages of endothelin-1 were added. The activity of the test compound was ascertained by the observed shift to the right of the dosage-activity curve of endothelin-1 in the presence of different concentrations of antagonist. This shift to the right (or "dose ratio", DR) corresponds to the quotient from the EC50 values of endothelin-1 in the presence and in the absence of antagonist, with the EC50 value denoting the endothelin concentration required for a half-maximum contraction.
The corresponding PA2 value, which is a measure of the activity of the test compound, was calculated using a computer programme according to the following equation from the "dose ratio" DR for each individual dosage-activity curve.
pA2 =log(DR-1)-log(antagonist-concentration)
The EC50 of endothelin in the absence of test compounds is 0.3 nM.

ETB receptor = target: T2, ETB receptor (Homo sapiens, UniProt P24530); test: Inhibition of Endothelin Binding to Human Placenta Membranes (ETB receptor); conditions: inhibition of 50% of the specific binding of 125I-endothelin (20 pM)
T2 construct: Human placenta is homogenized in 5 mM Tris buffer; from tissue; host or cells: human placenta membranes
T2 sequence (P24530 27-442): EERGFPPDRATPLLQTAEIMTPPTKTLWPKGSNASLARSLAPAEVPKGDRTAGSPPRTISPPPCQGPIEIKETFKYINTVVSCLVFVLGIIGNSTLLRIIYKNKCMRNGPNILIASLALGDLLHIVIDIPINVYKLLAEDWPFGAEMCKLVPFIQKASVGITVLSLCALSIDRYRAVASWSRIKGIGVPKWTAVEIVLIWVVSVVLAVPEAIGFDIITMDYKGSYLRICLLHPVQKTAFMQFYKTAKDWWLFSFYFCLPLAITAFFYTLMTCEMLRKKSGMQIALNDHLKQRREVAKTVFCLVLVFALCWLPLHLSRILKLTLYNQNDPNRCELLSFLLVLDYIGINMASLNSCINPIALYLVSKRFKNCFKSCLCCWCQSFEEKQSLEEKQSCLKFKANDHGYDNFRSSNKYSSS
Experimental: II: Inhibition of Endothelin Binding to Human Placenta Membranes (ETB receptor) (see. Life Sci 44:1429 (1989))
Human placenta is homogenized in 5 mM Tris buffer, pH 7.4, which contains 1 mM MgCl2 and 250 mM sucrose. The homogenizate is centrifuged at 4° C. and 3000 g for 15 minutes, the supernatant containing the plasma membrane fraction is centrifuged at 72000 g for 30 minutes and the precipitate is washed with 75 mM Tris buffer, pH 7.4, which contains 25 mM MgCl2. Thereafter, precipitate obtained from in each case 10 g of original tissue is suspended in 1 ml of 75 mM Tris buffer, pH 7.4, containing 25 mM MgCl2 and 250 mM sucrose, and freeze-dried at -20° C. in 1 ml aliquots.
as §1, with “containing 35” for “containing 5”, “with” for “with 50”
as §2

Compound | IC50 (human ETA receptors) [µM] | Kb (Isolated Rat Aorta Rings) [µM] | IC50 (ETB receptor) [µM] | EC50 (Isolated Rat Aorta Rings; half-maximum contraction, absence of test compounds) [µM]
CCOC(=O)N1CCN(C(=O)c2cc(NS(=O)(=O)c3ccc(C(C)C)cn3)c(Oc3ccccc3OC)c(OCCOC(=O)Nc3ccccn3)c2)CC1 [Example 36, ethyl 4-{3-(5-iso-propyl-pyridine-2-sulphonylamino)-4-(2-methoxy-phenoxy)-5-[2-(pyridin-2-ylcarbamoyloxy)-ethoxy]-benzoyl}-piperazine-1-carboxylate] | 0.002 | 0.00631 | 0.65 | 
COc1ccccc1Oc1c(NS(=O)(=O)c2ccc(C(C)C)cn2)cc(C(=O)N2CCOCC2)cc1OCCOC(=O)Nc1ccccn1 [Example 31, pyridin-2-yl-carbamicacid 2-[3-(5-isopropyl-pyridine-2-sulphonylamino)-2-(2-methoxy-phenoxy)-5(morpholine-4-carbonyl)-phenoxy]-ethyl ester] | 0.006 |  | 0.85 | 
COc1cccc(Oc2c(NS(=O)(=O)c3ccc(SC)cc3)cc(C(=O)Nc3ccccc3)cc2OCCO)c1 [Example 105, 3-(2-hydroxy-ethoxy)-4-(3-methoxy-phenoxy)-5-(4-methylsulphanyl-benzenesulphonyl-amino)-N-phenyl-benzamide] | > 100 |  | 0.015 | 
COc1cccc(Oc2c(NS(=O)(=O)c3ccc(C(C)(C)C)cc3)cc(C(=O)Nc3ccccc3)cc2OCCO)c1 [Example 89, 3-(4-tert-butylbenzenesulphonylamino)-5-(2-hydroxy-ethoxy)-4-(3-methoxy-phenoxy)-N-phenyl-benzamide] | > 100 |  | 0.065 | 
COc1ccccc1Oc1c(NS(=O)(=O)c2ccc(C(C)C)cn2)cc(C(=O)N2CCN(C)CC2)cc1OCCOC(=O)Nc1ccccn1 [Example 33, pyridin-2-yl-carbamic acid 2-[3-(5-isopropyl-pyridine-2-sulphonylamino)-2-(2-methoxy-phenoxy)-5-(4-methyl-piperazine-1-carbonyl)-phenoxy]-ethyl ester] | 0.01 | 0.0398 | 0.44 | 
endothelin: endothelin-1, contracting agonist added in cumulative dosages to rat aorta rings [reference compound] |  |  |  | 0.0003
COc1ccc(Cl)c(Oc2c(NS(=O)(=O)c3ccc(C(F)(F)F)cc3)cc(C(=O)Nc3ccccc3)cc2OCCO)c1 [Example 85, 4-(2-chloro-5-methoxy-phenoxy)-3-(2-hydroxy-ethoxy)-N-phenyl-5-(4-trifluoromethyl-benzenesulphonylamino)-benzamide] | 86 |  | 0.02 | 
